{"source": "paper PMC4448943", "about": "(Neurotoxicology, 2014)", "key": {"rats": {"system": "rats", "settings": "rat, in vivo, cited from earlier work"}, "[1]": {"system": "Adult male Sprague-Dawley rats", "settings": "rat, in vivo"}, "[2]": {"system": "Adult male Sprague-Dawley rats", "settings": "rat, in vivo", "remark": "listed apart in the source"}, "hippocampal AChE": {"molecular_target": "T1, hippocampal AChE (Rattus norvegicus, UniProt P37136)", "T1 sequence (P37136 32-614)": "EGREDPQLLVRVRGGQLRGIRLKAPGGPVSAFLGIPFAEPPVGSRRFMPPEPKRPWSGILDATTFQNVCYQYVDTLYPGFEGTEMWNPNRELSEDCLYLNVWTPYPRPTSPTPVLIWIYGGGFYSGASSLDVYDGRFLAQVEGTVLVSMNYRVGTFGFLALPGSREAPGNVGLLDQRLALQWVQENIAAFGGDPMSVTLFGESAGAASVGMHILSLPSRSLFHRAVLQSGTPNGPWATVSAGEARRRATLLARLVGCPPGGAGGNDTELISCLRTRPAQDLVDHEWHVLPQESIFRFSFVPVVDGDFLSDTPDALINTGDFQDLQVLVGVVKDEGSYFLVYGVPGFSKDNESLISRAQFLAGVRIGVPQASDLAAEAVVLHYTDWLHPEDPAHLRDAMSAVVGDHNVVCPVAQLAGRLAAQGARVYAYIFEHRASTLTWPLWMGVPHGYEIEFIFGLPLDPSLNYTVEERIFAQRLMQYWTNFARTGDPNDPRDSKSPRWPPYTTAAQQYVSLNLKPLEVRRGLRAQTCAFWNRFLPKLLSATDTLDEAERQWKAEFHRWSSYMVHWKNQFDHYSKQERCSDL", "format": "in vivo"}, "rat hippocampal FAAH": {"molecular_target": "T2, rat hippocampal FAAH (Rattus norvegicus, UniProt P97612)", "T2 sequence (P97612 1-579)": "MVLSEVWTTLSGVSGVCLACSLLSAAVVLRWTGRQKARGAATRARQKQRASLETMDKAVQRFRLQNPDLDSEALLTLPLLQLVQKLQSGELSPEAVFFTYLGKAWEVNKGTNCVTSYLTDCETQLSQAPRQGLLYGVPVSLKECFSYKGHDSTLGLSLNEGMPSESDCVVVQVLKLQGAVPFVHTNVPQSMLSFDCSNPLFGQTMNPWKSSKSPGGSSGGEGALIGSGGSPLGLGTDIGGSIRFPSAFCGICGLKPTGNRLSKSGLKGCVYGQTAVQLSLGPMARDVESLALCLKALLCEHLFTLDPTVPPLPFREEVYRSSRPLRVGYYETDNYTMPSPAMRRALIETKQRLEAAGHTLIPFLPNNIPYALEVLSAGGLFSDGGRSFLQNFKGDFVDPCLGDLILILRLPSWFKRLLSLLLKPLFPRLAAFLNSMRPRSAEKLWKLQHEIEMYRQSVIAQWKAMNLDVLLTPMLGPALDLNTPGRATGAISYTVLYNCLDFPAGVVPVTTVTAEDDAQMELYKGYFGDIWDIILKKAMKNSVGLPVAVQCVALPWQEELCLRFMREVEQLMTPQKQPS", "assay": "In vitro inhibition of hippocampal FAAH activity", "format": "biochemical"}, "hippocampal FAAH": {"molecular_target": "T3, hippocampal FAAH (Rattus norvegicus, UniProt P97612)", "T3 sequence (P97612 1-579)": "T2 sequence (P97612 1-579)", "settings": "four hours after dosing, PO 0.3 and 0.6 mg/kg sc, CPO 6 and 12 mg/kg sc"}, "rat hippocampal MAGL": {"molecular_target": "T4, rat hippocampal MAGL (Rattus norvegicus, UniProt Q8R431)", "T4 sequence (Q8R431 1-303)": "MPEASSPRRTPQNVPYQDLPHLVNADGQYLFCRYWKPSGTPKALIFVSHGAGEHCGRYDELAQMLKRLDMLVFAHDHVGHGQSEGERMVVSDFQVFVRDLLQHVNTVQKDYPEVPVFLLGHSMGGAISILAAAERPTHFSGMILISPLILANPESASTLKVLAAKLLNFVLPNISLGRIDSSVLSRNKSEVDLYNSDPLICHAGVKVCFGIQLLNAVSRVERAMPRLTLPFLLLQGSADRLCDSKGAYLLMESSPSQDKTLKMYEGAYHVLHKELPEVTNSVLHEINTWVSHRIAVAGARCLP", "assay": "In vitro inhibition of hippocampal MAGL activity", "format": "biochemical", "settings": "CPO more potent than PO"}, "rat hippocampal AChE": {"molecular_target": "T5, rat hippocampal AChE (Rattus norvegicus, UniProt P37136)", "T5 sequence (P37136 32-614)": "T1 sequence (P37136 32-614)", "format": "biochemical"}, "hippocampal MAGL": {"molecular_target": "T6, hippocampal MAGL (Rattus norvegicus, UniProt Q8R431)", "T6 sequence (Q8R431 1-303)": "T4 sequence (Q8R431 1-303)", "format": "in vivo", "settings": "four hours after dosing; PO 0.3 and 0.6 mg/kg sc, CPO 6 and 12 mg/kg sc"}}, "note": "Where two headings read alike, the source gives them in different places."}
{"molecule": "Cc1c(C(=O)NN2CCCCC2)nn(-c2ccc(Cl)cc2Cl)c1-c1ccc(I)cc1", "note": "[AM251, N-(piperidin-1-yl)-5-(4-iodophenyl)-1-(2,4-dichlorophenyl)-4-methyl-1H-pyrazole-3-carboxamide]", "values": [{"measurement": "Influence on responses to chlorpyrifos", "setting": "rats", "value": "no influence"}]}
{"molecule": "Cc1c(C(=O)c2cccc3ccccc23)c2cccc3c2n1[C@H](CN1CCOCC1)CO3", "note": "[WIN 55,212-2]", "values": [{"measurement": "Effect on signs of cholinergic toxicity following acute PO exposure", "setting": "rats; po", "value": "reduced"}]}
{"molecule": "CCOP(=O)(OCC)Oc1nc(Cl)c(Cl)cc1Cl", "note": "[chlorpyrifos oxon]", "values": [{"measurement": "Involuntary movements (tremors)", "setting": "[1]", "value": "dose-related"}, {"measurement": "SLUD signs (primarily defecation and lacrimation)", "setting": "[1]", "value": "slightly increased"}, {"measurement": "Lethality", "setting": "[2]; male, Sprague-Dawley", "value": "0/6"}, {"measurement": "Lethality", "setting": "[2]", "value": "no lethality"}, {"measurement": "In vivo inhibition of hippocampal AChE activity", "setting": "hippocampal AChE; rat, in vivo", "value": "80–90%"}, {"measurement": "IC50", "setting": "rat hippocampal FAAH", "value": 71, "unit": "nM"}, {"measurement": "In vitro potency at inhibiting FAAH relative to PO", "setting": "rat hippocampal FAAH; CPO more potent than PO", "value": "≈ 8 fold"}, {"measurement": "In vivo inhibition of hippocampal FAAH activity", "setting": "hippocampal FAAH", "value": "90–95%"}, {"measurement": "In vivo inhibition of hippocampal FAAH activity", "setting": "hippocampal FAAH; listed as CPO", "value": "80–90%"}, {"measurement": "In vitro potency at inhibiting MAGL relative to PO", "setting": "rat hippocampal MAGL", "value": "≈ 19 fold"}, {"measurement": "In vitro potency at inhibiting AChE relative to PO", "setting": "rat hippocampal AChE", "value": "≈ 2 fold"}, {"measurement": "In vivo inhibition of hippocampal MAGL activity", "setting": "hippocampal MAGL", "value": "37–50%"}]}
{"molecule": "CCOP(=O)(OCC)Oc1ccc([N+](=O)[O-])cc1", "note": "[paraoxon, Paraoxon]", "values": [{"measurement": "Involuntary movements (tremors)", "setting": "[1]", "value": "dose-related"}, {"measurement": "SLUD signs (primarily defecation and lacrimation)", "setting": "[1]", "value": "slightly increased"}, {"measurement": "Lethality", "setting": "[2]; male, Sprague-Dawley, 0.6 mg/kg", "value": "2/14"}, {"measurement": "In vivo inhibition of hippocampal AChE activity", "setting": "hippocampal AChE; four hours after dosing, PO 0.3 and 0.6 mg/kg sc, CPO 6 and 12 mg/kg sc", "value": "80–90%"}, {"measurement": "IC50", "setting": "rat hippocampal FAAH", "value": 562, "unit": "nM"}, {"measurement": "In vivo inhibition of hippocampal FAAH activity", "setting": "hippocampal FAAH", "value": "90–95%"}, {"measurement": "In vivo inhibition of hippocampal FAAH activity", "setting": "hippocampal FAAH; listed as PO", "value": "80–90%"}, {"measurement": "In vivo inhibition of hippocampal MAGL activity", "setting": "hippocampal MAGL", "value": "neither dosage of paraoxon affected MAGL activity"}]}
